Test results as given in patent publication US20240082342A1, “PEPTIDE THERAPEUTICS FOR INCREASING LUNG CELL VIABILITY” (BOARD OF REGENTS, THE UNIVERSITY OF TEXAS SYSTEM, priority 2018, published 2024).
“Also recorded” adds a separate entry of the source.

Legend:
A2ECs treated with CSE = assay: A2ECs exposed to cigarette smoke extract (CSE) in vitro; format: cell-based; settings: primary A2ECs + CSE
Description: A2ECs were treated with PBS, CSP or its fragment, CSP7 or control peptide (CP), 2 h after exposure of cells to CSE. A2EC lysates were immunoblotted for acetylated/total p53 and active/total caspase-3 24 h after CSE exposure. β-actin levels were evaluated to assess equal loading.
To further confirm CSP7 mimics CSP effect, primary A2ECs were treated with cigarette smoke extract (CSE) prepared in PBS in the presence of CSP or CSP7. The A2ECs treated with CSE and CP or PBS alone were used as controls. The A2EC lysates were tested for acetylated and total p53, apoptosis and Sirt1 expression. CSE induced total and acetylated p53 while inhibiting Sirt1 expression in A2ECs indicating inhibition of Sirt1-mediated deacetylation of p53 contributes to induction of acetylated and total p53 and A2EC apoptosis.

PP2A = target: T1, PP2A (Mus musculus, UniProt P63330); assay: PP2A activity assay in lung homogenates of CS exposed WT mice; format: in vivo; settings: WT mice with CS-LI, Neb or IP, 4 weeks
T1 construct: from tissue; host or cells: lung homogenates of WT C57BL/6J mice
T1 sequence (P63330 whole entry): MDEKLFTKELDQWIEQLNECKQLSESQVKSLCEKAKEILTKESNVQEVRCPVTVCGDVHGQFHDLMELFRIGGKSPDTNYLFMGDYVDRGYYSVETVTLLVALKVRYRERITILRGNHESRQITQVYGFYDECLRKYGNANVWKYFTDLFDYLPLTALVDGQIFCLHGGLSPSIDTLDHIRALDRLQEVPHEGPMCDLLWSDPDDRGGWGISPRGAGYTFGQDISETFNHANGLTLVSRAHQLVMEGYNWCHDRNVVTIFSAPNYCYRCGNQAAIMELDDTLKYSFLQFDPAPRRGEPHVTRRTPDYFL
Description: PP2A Activity Determination and PP2A Inhibitors PP2A activity was determined using the Millipore PP2A activity assay (17-313; Millipore) (Nath S, et al., Am J Respir Cell Mol Biol. 59:695-705, 2018 December).
Determination of protein phosphatase 2A (PP2A) activity. PP2A activity was determined in isolated AECs and lung homogenates using the PP2A activity assay kit (Millipore) (Nath et al, Am J Respir Cell Mol Biol 59:695-705, 2018. doi: 10.1165/rcmb.2018-01730C.)

WT mice with CS-LI = assay: Chronic CS/TSE lung injury in WT mice treated by nebulization or IP injection; format: in vivo, mouse; settings: for lung volume (μCT): 20 weeks CS
Description: Pulmonary function tests were performed immediately before CT imaging and before mice were killed, as previously described (DeCologne N et al., Eur Respir J. 35:176-85, 2010). Briefly, mice were anesthetized with a ketamine/xylazine mixture. Anesthetized mice were intubated by inserting a sterile, 20-gauge intravenous cannula through the vocal cords into the trachea. Elastance, compliance, and total lung resistance were then measured (SCIREQ, Tempe, AZ). The “snapshot perturbation method” was used to study lung function in the CBB injury model. This method measures total lung resistance, compliance, and elastance of the entire respiratory system. Increased total lung resistance in the CBB model may reflect lung contraction associated with pleural rind formation with concurrent distortion of the airways. The flexiVent was set to a tidal volume of […] at a frequency of 150 breaths/min against 2-3 cm H2O positive end-expiratory pressure, according to manufacturer's specifications. The mice were maintained under anesthesia using isofluorane throughout the pulmonary function testing.
After ketamine/xylazine injection, mice were anesthetized further using an isoflurane/02 mixture to ensure that mice remained deeply anesthetized and to minimize spontaneous breaths. The Explore Locus Micro-CT Scanner (General Electric, GE Healthcare, Wauwatosa, WI) was used for CT imaging. CT scans were performed during full inspiration and at a resolution of […]. Lung volumes were calculated from lung renditions collected at full inspiration. Microview software was used to analyze lung volumes and render three-dimensional images (Tucker T A et al., Am J Respir Cell Mol Biol. 50:316-27, 2014).
Wild type (WT) mice of the C57BL/6J strain (n=10/group) were kept in ambient air or were TSE for 4 hour/day, 5 days a week as described. […]
Micro-computed Tomography (pCT) scanning and measurements of lung volume and pulmonary function. […] Lung volumes were calculated from lung renditions collected at full inspiration using Microview software. […]

Question: With “DGIWKASFTTFTVTKYWFYR (listed as Homo sapiens) [CSP, 20 residue caveolin-1 scaffolding domain peptide]” as the substance, how does the CSE-induced apoptosis (A2ECs treated with CSE) read?
Answer: inhibited CSE-induced apoptosis

Question: “FTTFTVT (listed as Homo sapiens) [CSP7, heptapeptide fragment of the caveolin-1 scaffolding domain peptide CSP]” was tested. Which “PP2A activity / signaling” value (PP2A) did it give?
Answer: reversed by CSP7; also recorded: improved PP2A activity

Question: What about the “lung volume (μCT)” value (WT mice with CS-LI) of the same substance?
Answer: significantly improved

Question: What about the “lung volume, compliance, elastance and resistance” value (WT mice with CS-LI; IP or Neb, 20 weeks TSE/CS) of the same substance?
Answer: reduced lung volume, compliance, elastance and resistance; also recorded: trend of reversal; also recorded: significantly improved

Question: And the CSE-induced apoptosis (A2ECs treated with CSE)?
Answer: inhibited CSE-induced apoptosis

Question: Which “PP2A activity / signaling” value (PP2A) does the source give for “WGIDKAFFTTSTVTYKWFRY [CP, scrambled control peptide with the same amino acid composition as CSP, reference compound]” here?
Answer: still showed loss of PP2A activity

Question: What about the “lung volume (μCT)” value (WT mice with CS-LI) of the same substance?
Answer: persistently high lung volumes
